Values quoted from earlier work in patent publication US11248001B2, “PCSK9 inhibitors and methods of use thereof” (ASTRAZENECA AB, priority 2019, dated 2022).

B1: evolocumab (antibody, chains of the INN, looked up, V domains shown)
VH: EVQLVQSGAEVKKPGASVKVSCKASGYTLTSYGISWVRQAPGQGLEWMGWVSFYNGNTNYAQKLQGRGTMTTDPSTSTAYMELRSLRSDDTAVYYCARGYGMDVWGQGTTVTVSS
VL: ESALTQPASVSGSPGQSITISCTGTSSDVGGYNSVSWYQQHPGKAPKLMIYEVSNRPSGVSNRFSGSKSGNTASLTISGLQAEDEADYYCNSYTSTSMVFGGGTKLTVL

Conditions: clinical trials, patients

Row | Molecule | decrease in LDL levels
1 | alirocumab | about 50%
2 | B1 | 60-75%
